Reference: ChEMBL document CHEMBL1201862, “PubChem BioAssay data set” (2004)
Values belong to the compound of their own block, whether it stands above or below them. Active and inactive are the calls of the source.

Key:
[1] = biological target: Delta-type opioid receptor (Homo sapiens, UniProt P41143); experiment: Counterscreen for agonists of heterodimerization of the mu 1 (OPRM1) and delta 1 (OPRD1) opioid receptors: Luminescence-based cell-based high throughput dose response assay to identify agonists of OPRD1 homodimerization. [Related pubchem assays (depositor defined):AID504326, AID504355, AID504692, AID504904, AID504905]; assay type: functional
Chain of Delta-type opioid receptor (P41143 whole entry): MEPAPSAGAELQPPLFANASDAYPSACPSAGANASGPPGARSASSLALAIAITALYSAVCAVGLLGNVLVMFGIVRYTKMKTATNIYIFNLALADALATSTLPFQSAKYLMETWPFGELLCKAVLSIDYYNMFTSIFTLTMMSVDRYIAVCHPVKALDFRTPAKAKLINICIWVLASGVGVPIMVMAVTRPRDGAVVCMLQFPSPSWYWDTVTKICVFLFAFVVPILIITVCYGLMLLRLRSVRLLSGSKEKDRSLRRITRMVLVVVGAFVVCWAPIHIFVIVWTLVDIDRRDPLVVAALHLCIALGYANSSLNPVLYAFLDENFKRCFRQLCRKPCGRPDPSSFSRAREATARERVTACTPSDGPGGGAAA

[2] = biological target: Mu-type opioid receptor (Homo sapiens, UniProt P35372); experiment: Counterscreen for agonists of heterodimerization of the mu 1 (OPRM1) and delta 1 (OPRD1) opioid receptors: Luminescence-based cell-based high throughput dose response assay to identify agonists of OPRM1 homodimerization.; assay type: functional;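 note: U2OS cells expressing OPRM1 and beta-arrestin as split beta-galactosidase partners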
Chain of Mu-type opioid receptor (P35372 whole entry): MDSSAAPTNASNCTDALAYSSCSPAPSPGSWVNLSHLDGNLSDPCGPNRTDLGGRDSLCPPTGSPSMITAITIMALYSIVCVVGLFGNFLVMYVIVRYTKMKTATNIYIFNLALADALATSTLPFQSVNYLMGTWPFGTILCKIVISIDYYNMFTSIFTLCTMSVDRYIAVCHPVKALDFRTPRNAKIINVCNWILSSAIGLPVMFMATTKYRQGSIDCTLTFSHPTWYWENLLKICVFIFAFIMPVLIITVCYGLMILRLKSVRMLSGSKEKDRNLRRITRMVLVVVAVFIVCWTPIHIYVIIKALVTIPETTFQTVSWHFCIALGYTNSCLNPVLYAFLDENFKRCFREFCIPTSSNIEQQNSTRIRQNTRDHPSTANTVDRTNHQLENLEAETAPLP

[3] = biological target: 5-hydroxytryptamine receptor 5A (Homo sapiens, UniProt P47898); experiment: Counterscreen for agonists of OPRM1-OPRD1 heterodimerization: luminescence-based cell-based high throughput dose response assay to identify agonists of 5-hydroxytryptamine (serotonin) 5A receptor (HTR5A). [Related pubchem assays (depositor defined):AID504326, AID504355, AID504692, AID504904, AID504905]; assay type: functional
Chain of 5-hydroxytryptamine receptor 5A (P47898 whole entry): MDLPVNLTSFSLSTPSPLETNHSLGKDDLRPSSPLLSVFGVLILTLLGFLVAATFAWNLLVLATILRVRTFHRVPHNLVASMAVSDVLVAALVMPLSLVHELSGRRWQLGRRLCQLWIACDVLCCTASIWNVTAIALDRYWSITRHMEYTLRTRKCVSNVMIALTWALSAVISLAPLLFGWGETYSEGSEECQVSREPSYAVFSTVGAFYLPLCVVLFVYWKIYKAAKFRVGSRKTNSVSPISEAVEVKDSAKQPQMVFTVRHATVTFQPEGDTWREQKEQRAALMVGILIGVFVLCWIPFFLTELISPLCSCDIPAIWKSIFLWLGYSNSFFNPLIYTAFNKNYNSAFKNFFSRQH

[4] = biological target: T1, Short transient receptor potential channel 4 (Mus musculus, UniProt Q9QUQ5); experiment: calcium entry via TRPC4 opening agents – cell-based, HEK293 TRPC4/mu-opioid, Fluo-4 calcium, dose response (AID 434937); assay type: functional
T1 sequence (Q9QUQ5 whole entry): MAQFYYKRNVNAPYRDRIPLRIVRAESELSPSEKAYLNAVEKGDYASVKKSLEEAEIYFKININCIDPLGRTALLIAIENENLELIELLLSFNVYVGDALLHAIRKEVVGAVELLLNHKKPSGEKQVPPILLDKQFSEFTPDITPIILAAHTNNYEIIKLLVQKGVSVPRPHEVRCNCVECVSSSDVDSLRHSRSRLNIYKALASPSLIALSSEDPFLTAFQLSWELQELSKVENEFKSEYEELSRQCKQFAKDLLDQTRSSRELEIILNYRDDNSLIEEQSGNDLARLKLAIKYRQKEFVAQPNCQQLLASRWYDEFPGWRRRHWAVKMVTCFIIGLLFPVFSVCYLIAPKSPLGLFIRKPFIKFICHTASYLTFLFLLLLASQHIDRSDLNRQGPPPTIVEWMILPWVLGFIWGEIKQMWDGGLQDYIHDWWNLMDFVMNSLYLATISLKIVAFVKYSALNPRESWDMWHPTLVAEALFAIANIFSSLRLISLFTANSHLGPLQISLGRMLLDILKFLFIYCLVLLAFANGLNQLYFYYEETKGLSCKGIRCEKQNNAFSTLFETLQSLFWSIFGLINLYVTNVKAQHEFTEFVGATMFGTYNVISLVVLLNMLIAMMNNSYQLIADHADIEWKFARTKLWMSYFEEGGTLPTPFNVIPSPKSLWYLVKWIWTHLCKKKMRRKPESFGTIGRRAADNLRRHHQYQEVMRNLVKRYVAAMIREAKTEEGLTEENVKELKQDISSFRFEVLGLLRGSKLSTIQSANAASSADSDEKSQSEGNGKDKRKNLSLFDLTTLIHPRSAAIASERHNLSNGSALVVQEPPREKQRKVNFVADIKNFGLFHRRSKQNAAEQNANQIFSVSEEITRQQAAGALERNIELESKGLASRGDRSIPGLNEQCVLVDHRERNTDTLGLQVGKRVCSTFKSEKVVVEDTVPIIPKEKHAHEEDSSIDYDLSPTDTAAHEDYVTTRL

[5] = biological target: T2, Low molecular weight phosphotyrosine protein phosphatase (Homo sapiens, UniProt P24666); assay type: functional; conditions: read-out: IC50_Mean;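 note: Dose-response confirmation assay measuring inhibition of LMPTP enzyme activity by fluorescence intensity read-out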
T2 sequence (P24666 whole entry): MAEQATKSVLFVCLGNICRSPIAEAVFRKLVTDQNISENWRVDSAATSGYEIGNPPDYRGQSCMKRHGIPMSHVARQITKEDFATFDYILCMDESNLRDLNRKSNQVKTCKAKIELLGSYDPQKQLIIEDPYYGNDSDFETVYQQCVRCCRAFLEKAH

[6] = viability loss in THP-1 monocytes – THP-1 cells, cytotoxicity control for Vif-APOBEC3G degradation inhibitor project, dose response (AID 1117359); assay type: functional; conditions: THP-1
[7] = inhibition of ADAM10 peptide cleavage – biochemical, FRET peptide substrate, recombinant human ADAM10, selectivity assay for ADAM17 exosite inhibitor project, dose response (AID 743259);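 note: ADAM10 enzyme cleaving a FRET peptide substrate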
[8] = biological target: Disintegrin and metalloproteinase domain-containing protein 17 (Homo sapiens, UniProt P78536); experiment: exosite inhibitors of ADAM17, dose response, biochemical (AID 743260)
Chain of Disintegrin and metalloproteinase domain-containing protein 17 (P78536 whole entry, the tested form may be a part): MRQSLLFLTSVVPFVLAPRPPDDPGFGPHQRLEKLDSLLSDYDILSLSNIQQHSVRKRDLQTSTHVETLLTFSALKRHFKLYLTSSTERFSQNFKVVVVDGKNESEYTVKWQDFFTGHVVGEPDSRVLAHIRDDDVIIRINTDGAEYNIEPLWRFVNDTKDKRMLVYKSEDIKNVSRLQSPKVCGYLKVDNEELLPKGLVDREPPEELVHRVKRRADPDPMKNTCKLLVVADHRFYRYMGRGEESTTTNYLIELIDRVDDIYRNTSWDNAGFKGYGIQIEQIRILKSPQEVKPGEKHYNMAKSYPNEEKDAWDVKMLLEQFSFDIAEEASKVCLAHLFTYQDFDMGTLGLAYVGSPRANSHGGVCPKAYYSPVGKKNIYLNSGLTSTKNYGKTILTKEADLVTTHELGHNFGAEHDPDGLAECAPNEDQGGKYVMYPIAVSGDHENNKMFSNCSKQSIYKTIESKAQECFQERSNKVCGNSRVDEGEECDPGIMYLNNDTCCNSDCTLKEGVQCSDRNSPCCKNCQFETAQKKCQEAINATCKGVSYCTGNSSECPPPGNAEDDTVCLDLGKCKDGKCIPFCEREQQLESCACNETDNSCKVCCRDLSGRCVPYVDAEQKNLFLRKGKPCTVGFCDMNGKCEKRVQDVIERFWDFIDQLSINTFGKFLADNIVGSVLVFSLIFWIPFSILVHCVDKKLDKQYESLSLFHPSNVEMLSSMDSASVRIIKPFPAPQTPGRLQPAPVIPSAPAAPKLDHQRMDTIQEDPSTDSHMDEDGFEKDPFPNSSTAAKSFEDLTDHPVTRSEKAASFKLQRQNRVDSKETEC

[9] = OVCAR8 cell viability loss – plate reader, dry powder samples, PAX8 project, dose response (AID 743197); assay type: functional, cell-based; conditions: OVCAR-8
[10] = OVCAR-3 cell viability loss – plate reader, dry powder samples, PAX8 inhibitor project, dose response (AID 743044); assay type: functional, cell-based
[11] = biological target: Paired box protein Pax-8 (Homo sapiens, UniProt Q06710); experiment: PAX8 transcriptional activity inhibition in RMG-I – RMG-I cells, luciferase, cherry-pick, dose response (AID 687027); assay type: functional, cell-based;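 note: luciferase reporter driven by Pax8 target thyroperoxidase promoter measured by SteadyGlo luminescence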
Chain of Paired box protein Pax-8 (Q06710 whole entry): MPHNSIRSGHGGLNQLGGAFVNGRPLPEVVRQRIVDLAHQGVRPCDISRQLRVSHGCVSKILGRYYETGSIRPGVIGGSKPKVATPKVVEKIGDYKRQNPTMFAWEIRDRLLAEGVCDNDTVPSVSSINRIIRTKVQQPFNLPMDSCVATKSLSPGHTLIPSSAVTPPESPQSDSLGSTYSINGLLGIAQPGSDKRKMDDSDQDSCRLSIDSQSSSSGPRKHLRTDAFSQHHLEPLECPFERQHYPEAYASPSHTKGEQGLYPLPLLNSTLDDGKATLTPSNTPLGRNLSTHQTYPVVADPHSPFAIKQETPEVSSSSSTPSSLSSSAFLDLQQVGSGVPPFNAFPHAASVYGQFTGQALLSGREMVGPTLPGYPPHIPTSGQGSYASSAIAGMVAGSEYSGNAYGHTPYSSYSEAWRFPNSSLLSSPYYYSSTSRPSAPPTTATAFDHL

[12] = biological target: Induced myeloid leukemia cell differentiation protein Mcl-1 (Homo sapiens, UniProt Q07820); assay type: functional
Chain of Induced myeloid leukemia cell differentiation protein Mcl-1 (Q07820 whole entry): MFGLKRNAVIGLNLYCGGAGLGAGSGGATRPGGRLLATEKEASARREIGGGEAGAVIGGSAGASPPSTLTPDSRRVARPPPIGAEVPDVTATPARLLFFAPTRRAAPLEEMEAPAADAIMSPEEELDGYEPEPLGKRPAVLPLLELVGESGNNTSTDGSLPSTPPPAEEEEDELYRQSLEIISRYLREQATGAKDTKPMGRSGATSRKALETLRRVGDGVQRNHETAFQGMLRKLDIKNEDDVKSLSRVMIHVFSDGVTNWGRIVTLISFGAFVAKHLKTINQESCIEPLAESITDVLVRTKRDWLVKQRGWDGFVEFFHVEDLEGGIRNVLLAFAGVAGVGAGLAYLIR

[13] = growth inhibition of yeast DHODH-expressing 3D7 parasites – SYBR Green, dry powder samples, dose response (AID 1159570); assay type: functional, cell-based;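 note: parasite growth measured after 72 hours of compound exposure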
[14] = growth inhibition of PfATP4-mutant resistant parasites – NITD609-resistant line, SYBR Green, dry powder, dose response (AID 1159571); assay type: functional, cell-based;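 note: parasites synchronized at ring stage by sorbitol before testing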
[15] = toxicity to human HepG2 hepatoma cells – cell-based, plate reader, dry powder samples, cytotoxicity control, dose response (AID 1159569); assay type: functional;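 note: inhibitor potency with signal falling toward the positive control level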
[16] = Dd2 malaria parasite growth inhibition potency – SYBR Green, dry powder samples, dose response (AID 1159566); assay type: functional, cell-based;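 note: potency for growth inhibition with lower SYBR green DNA signal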
[17] = P. falciparum Dd2 growth inhibitors, dose response, SYBR Green, cherry-picked samples (AID 1159567); assay type: functional, cell-based

EC50 [1]: > 92.5 µM (inactive)
EC50 [2]: > 92.5 µM (inactive)
EC50 [3]: > 92.5 µM (inactive)
EC50 [4]: 1.88 µM (active)
Structure (SMILES): Cc1cccc2cc(C(c3nnnn3Cc3ccccc3)N3CCN(C)CC3)c(O)nc12 (centres undefined)

IC50 [5]: 6.19 µM (active)
Structure (SMILES): O=c1cc(-c2ccsc2)oc2cc(-c3ccc4c(c3)OCO4)ccc12

Structure (SMILES): O=C(Nc1nc(-c2ccco2)c(-c2ccco2)s1)c1ccc(F)cc1F
CC50 [6]: > 40 µM (active)

Structure (SMILES): Cc1nn(C)cc1CNC(=O)C1C2CCC(C2)C1C(=O)O (centres undefined)
CC50 [6]: > 40 µM (active)

IC50 [8]: > 69.5 µM (inactive)
Structure (SMILES): CCOC(=O)/C=C1\CN(Cc2ccc(OC)cc2)S(=O)(=O)c2ccccc21
IC50 [7]: > 69.5 µM (inactive)

Structure (SMILES): C[C@@H]1CN([C@H](C)CO)S(=O)(=O)c2ccc(C#CC3CCCC3)cc2O[C@H]1CN(C)Cc1cccnc1
AC50 [9]: 50.2 µM (active)
AC50 [10]: 26.2 µM (active)
AC50 [11]: 12.5 µM (active)

Structure (SMILES): COc1ccccc1C(=O)Nc1ccc2c(c1)C(=O)N(C)[C@@H]1CC[C@@H](CC(=O)NCc3ccc(Cl)c(Cl)c3)O[C@H]1CO2
AC50 [9]: 55.9 µM (active)
AC50 [10]: 40.8 µM (active)
AC50 [11]: 1.57 µM (active)

IC50 [8]: > 69.6 µM (inactive)
Structure (SMILES): O=C(CN1CCN(c2nc(-c3ccccc3)cs2)CC1)Nc1ccc(Cl)c(Cl)c1
IC50 [7]: 37.8 µM (inactive)

IC50 [12]: 3.28 µM (active)
Structure (SMILES): CC(C)c1ccc(S(=O)(=O)/N=C2/C=CC(=O)c3ccccc32)cc1
CC50 [6]: 18.2 µM (active)

Structure (SMILES): COCc1cn([C@@H]2C[C@@H]3O[C@H](CO)CC[C@@H]3O[C@@H]2CCc2ccc(-c3ccc(OC)cc3)cc2)nn1
AC50 [13]: 0.424 µM (active)
AC50 [14]: 0.571 µM (active)
AC50 [15]: 37.4 µM (active)
AC50 [16]: 0.426 µM (active)
AC50 [17]: 0.782 µM (active)

Structure (SMILES): COc1cccc(C#Cc2ccc([C@H]3[C@@H](CO)N4C(=O)CN(C(=O)c5ccccc5)C[C@H]34)cc2)c1
AC50 [13]: 1.03 µM (active)
AC50 [14]: 0.53 µM (active)
AC50 [15]: 22.3 µM (active)
AC50 [16]: 0.398 µM (active)
AC50 [17]: 0.791 µM (active)
